{"source": "patent US12460243B2", "about": "“Mass spectrometry determination of the sensitivity or resistance of bacteria to an antibiotic” (priority 2019, dated 2025)", "test_system": "Escherichia coli", "assay": "MALDI-TOF detection of released characteristic proteins, 10 min at 50° C., filtration (examples V, VI)", "assay_type": "cell-based", "conditions": "for Aire sous la courbe des pics observés, Protéine chaperonne de stress acide HdeB / Aire sous la courbe des pics observés, Protéine ribosomique 50S L29 / Aire sous la courbe des pics observés, Protéine ribosomique 50S L31 / Aire sous la courbe des pics observés, Protéine ribosomique 50S L33 / Aire sous la courbe des pics observés, SPIRAP (Stationary-Phase-Induced Ribosome-Associated Protein) / Ratio par protéine HdeB/Colistine / Ratio par protéine L29/Colistine / Ratio par protéine L31/Colistine / Ratio par protéine L33/Colistine / Ratio par protéine SIRAP/Colistine / Somme des ratios / sensitivity or resistance to colistin by MALDI-TOF: colistin 2.5 mg/ml, 10 min 50° C.; for classification by sum of the ratios against threshold: threshold 0.30", "method": "The tests were carried out using the following steps: • preparing a suspension of microorganism at 2 McF in water (suspension medium, bioMérieux reference 70700), • preparing a solution of colistin sulfate (Sigma reference C4461) at a concentration of 2× in pure water (taking into account the colistin titer indicated by the manufacturer).\nIn the context of this example, the tests were carried out with the method of the present invention to determine the sensitivity or resistance of several bacteria of several strains such as in example V and comprising the following steps: • measuring the intensity of each peak observed, • finding a ratio between the sum of the intensities of the protein peaks of the microorganism and at least 1 peak of colistin. • determining the status, resistant or sensitive to colistin, as a function of the sum of the ratios obtained and of a threshold fixed for each species. • a resistant microorganism will have a low ratio and a sensitive microorganism will have a high ratio.\nFirstly, the same strains of E. coli (EC_S10, EC_S15, EC_R16, EC_R17), used previously, are studied and the proteins characteristic of the species E. coli are analyzed. They are the following proteins: the stationary-phase-induced ribosome-associated protein (SPIRAP), the acid stress chaperone HdeB and the 50S ribosomal proteins L29, L31 and L33.", "note": "Where “and” joins values, the source holds several entries; their conditions need not be identical. Identical values can stand only once. Bridge positions count the residues as written; N and C are the ends. Square brackets hold non-standard residues; d marks the D form. Peptide text beside a SMILES is read from it. * marks the point of attachment. Heptanoyl(6-Me) = CC(C)CCCCC(=O)*; Dab = NCC[C@H](N)C(=O)O", "data": [{"smiles": "CC(C)CCCCC(=O)N[C@@H](CCN)C(=O)N[C@H](C(=O)N[C@@H](CCN)C(=O)N[C@H]1CCNC(=O)[C@H]([C@@H](C)O)NC(=O)[C@H](CCN)NC(=O)[C@H](CCN)NC(=O)[C@H](CC(C)C)NC(=O)[C@@H](CC(C)C)NC(=O)[C@H](CCN)NC1=O)[C@@H](C)O", "note": "[colistin] ({Heptanoyl(6-Me)}-[Dab]T[Dab][Dab][Dab][dL]L[Dab][Dab]T; lactam 4-C)", "values": [{"measurement": "Aire sous la courbe des pics observés, Protéine chaperonne de stress acide HdeB", "setting": "strain EC-R16", "value": 0.00, "unit": "unité arbitraire"}, {"measurement": "Aire sous la courbe des pics observés, Protéine ribosomique 50S L29", "setting": "strain EC-R16", "value": 0.00, "unit": "unité arbitraire"}, {"measurement": "Aire sous la courbe des pics observés, Protéine ribosomique 50S L31", "setting": "strain EC-R16", "value": 0.00, "unit": "unité arbitraire"}, {"measurement": "Aire sous la courbe des pics observés, Protéine ribosomique 50S L33", "setting": "strain EC-R16", "value": 0.00, "unit": "unité arbitraire"}, {"measurement": "Aire sous la courbe des pics observés, SPIRAP (Stationary-Phase-Induced Ribosome-Associated Protein)", "setting": "strain EC-R16", "value": 0.00, "unit": "unité arbitraire"}, {"measurement": "Ratio par protéine HdeB/Colistine", "setting": "strain EC-R16", "value": 0.00}, {"measurement": "Ratio par protéine L29/Colistine", "setting": "strain EC-R16", "value": 0.00}, {"measurement": "Ratio par protéine L31/Colistine", "setting": "strain EC-R16", "value": 0.00}, {"measurement": "Ratio par protéine L33/Colistine", "setting": "strain EC-R16", "value": 0.00}, {"measurement": "Ratio par protéine SIRAP/Colistine", "setting": "strain EC-R16", "value": 0.00}, {"measurement": "Somme des ratios", "setting": "strain EC-R16", "value": 0.00}, {"measurement": "classification by sum of the ratios against threshold", "setting": "strain EC-R16", "value": "resistant (the strains whose sum of the ratios is strictly below 0.30 will be considered as resistant)"}, {"measurement": "Aire sous la courbe des pics observés, Protéine chaperonne de stress acide HdeB", "setting": "strain EC-R17", "value": 0.00, "unit": "unité arbitraire"}, {"measurement": "Aire sous la courbe des pics observés, Protéine ribosomique 50S L29", "setting": "strain EC-R17", "value": 0.00, "unit": "unité arbitraire"}, {"measurement": "Aire sous la courbe des pics observés, Protéine ribosomique 50S L31", "setting": "strain EC-R17", "value": 0.00, "unit": "unité arbitraire"}, {"measurement": "Aire sous la courbe des pics observés, Protéine ribosomique 50S L33", "setting": "strain EC-R17", "value": 0.00, "unit": "unité arbitraire"}, {"measurement": "Aire sous la courbe des pics observés, SPIRAP (Stationary-Phase-Induced Ribosome-Associated Protein)", "setting": "strain EC-R17", "value": 0.00, "unit": "unité arbitraire"}, {"measurement": "Ratio par protéine HdeB/Colistine", "setting": "strain EC-R17", "value": 0.00}, {"measurement": "Ratio par protéine L29/Colistine", "setting": "strain EC-R17", "value": 0.00}, {"measurement": "Ratio par protéine L31/Colistine", "setting": "strain EC-R17", "value": 0.00}, {"measurement": "Ratio par protéine L33/Colistine", "setting": "strain EC-R17", "value": 0.00}, {"measurement": "Ratio par protéine SIRAP/Colistine", "setting": "strain EC-R17", "value": 0.00}, {"measurement": "Somme des ratios", "setting": "strain EC-R17", "value": 0.00}, {"measurement": "classification by sum of the ratios against threshold", "setting": "strain EC-R17", "value": "resistant (the strains whose sum of the ratios is strictly below 0.30 will be considered as resistant)"}, {"measurement": "Ratio par protéine HdeB/Colistine", "setting": "strain EC-S10", "value": 0.15}, {"measurement": "Ratio par protéine L33/Colistine", "setting": "strain EC-S10", "value": 0.15}, {"measurement": "Somme des ratios", "setting": "strain EC-S10", "value": "0.30 and 0.39"}, {"measurement": "classification by sum of the ratios against threshold", "setting": "strain EC-S10", "value": "sensitive (the strains whose sum of the ratios is greater than or equal to 0.30 will be considered as sensitive)"}, {"measurement": "Aire sous la courbe des pics observés, Protéine chaperonne de stress acide HdeB", "setting": "strain EC-S15", "value": "97.46 unité arbitraire and 60.9 unité arbitraire"}, {"measurement": "Aire sous la courbe des pics observés, Protéine ribosomique 50S L33", "setting": "strain EC-S15", "value": "86.71 unité arbitraire and 68.12 unité arbitraire"}, {"measurement": "Aire sous la courbe des pics observés, SPIRAP (Stationary-Phase-Induced Ribosome-Associated Protein)", "setting": "strain EC-S15", "value": 0.00, "unit": "unité arbitraire"}, {"measurement": "Ratio par protéine HdeB/Colistine", "setting": "strain EC-S15", "value": 0.21}, {"measurement": "Ratio par protéine L29/Colistine", "setting": "strain EC-S15", "value": "0.02 and 0.01"}, {"measurement": "Ratio par protéine L31/Colistine", "setting": "strain EC-S15", "value": "0.02 and 0.04"}, {"measurement": "Ratio par protéine L33/Colistine", "setting": "strain EC-S15", "value": "0.26 and 0.19"}, {"measurement": "Somme des ratios", "setting": "strain EC-S15", "value": "0.55 and 0.44"}, {"measurement": "classification by sum of the ratios against threshold", "setting": "strain EC-S15", "value": "sensitive (the strains whose sum of the ratios is greater than or equal to 0.30 will be considered as sensitive)"}, {"measurement": "sensitivity or resistance to colistin by MALDI-TOF", "setting": "strain EC_R16", "value": "resistant"}, {"measurement": "sensitivity or resistance to colistin by MALDI-TOF", "setting": "strain EC_R17", "value": "resistant"}, {"measurement": "sensitivity or resistance to colistin by MALDI-TOF", "setting": "strain EC_S10", "value": "sensitive"}, {"measurement": "sensitivity or resistance to colistin by MALDI-TOF", "setting": "strain EC_S15", "value": "sensitive"}]}]}
